Assay results published in patent publication EP0029990A1, “Biphenylmethane derivative, methods for its production and pharmaceutical compositions containing it” (Byk Gulden Lomberg Chemische Fabrik GmbH, priority 1979, dated 1981).

How the values were obtained:
[1] = Acute toxicity (LD50), intravenous administration, rat; details: in vivo
Source text: (§1) Ihre Toxizität ist geringer als die des aus einem Gemisch von Kondensationsprodukten aus m-Kresolsulfonsäuren und Formaldehyd bestehenden Handelsprodukts. In der nachstehenden Tabelle sind die bei intravenöser Verabreichung an Maus und Ratte ermittelten LDSo-Werte des Dinatriumsalzes der 2,2'-Dihydroxy-5,5'-methylendi-(p-toluolsulfonsäure) (A) und des mit Natriumhydroxid neutralisierten Handelsprodukts (B) aufgeführt.

[2] = Acute toxicity (LD50), intravenous administration, mouse; details: in vivo
Source text: as §1

Cc1cc(O)c(S(=O)(=O)O)cc1Cc1cc(S(=O)(=O)O)c(O)cc1C [A, Dinatrium-2,2'-dihydroxy-5,5'-methylendi-(p-toluolsulfonat)-monohydrat]
LD50 ([1]; Ratte ♀): 990 mg/kg
LD50 ([1]; Ratte ♂): 930 mg/kg
LD50 ([2]; Maus ♀): 1050 mg/kg
LD50 ([2]; Maus ♂): 1100 mg/kg
